From article PMC6688997 (Nature Communications, 2019)
pIC50: −log10 of the molar value. Where two headings read alike, the source gives them in different places.

How the values were obtained:
[1] = target: T1, Erk5 (Homo sapiens, UniProt Q13164); experiment: Kinase assay, ATP Km; assay type: biochemical
T1 construct: purchased Carna Biosciences

[2] = target: T2, TNK1 (Homo sapiens, UniProt Q13470); experiment: Kinase assay, ATP Km; assay type: biochemical
T2 construct: purchased Carna Biosciences

[3] = target: JNK3 (Homo sapiens, UniProt P53779); experiment: Kinase assay, ATP Km; assay type: biochemical
[4] = target: PKCδ (Homo sapiens, UniProt Q05655); experiment: Kinase assay, ATP Km; assay type: biochemical
[5] = target: T3, MER (Homo sapiens, UniProt Q12866); experiment: Kinase assay, ATP Km; assay type: biochemical
T3 construct: purchased Carna Biosciences

[6] = system: KM12 cells (TPM3-NTRK1); experiment: CellTiter-Glo cell viability assay; assay type: cell-based; settings: Homo sapiens, KM12, 72 h
Description: All media were supplemented with 100 U/ml penicillin, and 100 µg/ml streptomycin. All cells were routinely tested and verified to be free of mycoplasma contamination. […] To assess cell viability after 72-h drug treatment, 2000–5000 cells were plated in replicates of three to six in 96-well plates. Following the drug treatments, the cells were incubated with CellTiter-Glo assay reagent (Promega, Madison, WI, USA) for 10 min. […] IC50 values were determined using a nonlinear regression model with a sigmoidal dose response in GraphPad.

[7] = target: T4, SGK3 (Homo sapiens, UniProt Q96BR1); experiment: Kinase assay, ATP Km; assay type: biochemical
T4 construct: purchased Carna Biosciences

[8] = target: T5, TXK (Homo sapiens, UniProt P42681); experiment: Kinase assay, ATP Km; assay type: biochemical
T5 construct: purchased Carna Biosciences, Inc. (Kobe, Japan); assay run by the vendor
T5 sequence (P42681 1-527): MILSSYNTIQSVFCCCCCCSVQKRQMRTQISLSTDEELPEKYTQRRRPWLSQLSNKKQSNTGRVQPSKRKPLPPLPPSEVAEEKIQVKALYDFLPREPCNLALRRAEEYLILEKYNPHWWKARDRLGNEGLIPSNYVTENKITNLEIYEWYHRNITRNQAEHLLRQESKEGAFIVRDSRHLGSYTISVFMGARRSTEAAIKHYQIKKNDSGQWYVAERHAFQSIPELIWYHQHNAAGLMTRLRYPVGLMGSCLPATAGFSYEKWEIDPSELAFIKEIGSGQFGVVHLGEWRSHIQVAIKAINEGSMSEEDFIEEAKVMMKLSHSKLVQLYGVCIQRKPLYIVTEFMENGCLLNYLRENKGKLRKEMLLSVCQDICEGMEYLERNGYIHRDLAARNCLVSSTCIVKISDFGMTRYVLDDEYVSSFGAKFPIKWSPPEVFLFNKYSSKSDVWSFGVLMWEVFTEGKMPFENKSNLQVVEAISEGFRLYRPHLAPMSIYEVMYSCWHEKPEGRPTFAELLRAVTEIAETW

[9] = target: ROCK1 (Homo sapiens, UniProt Q13464); experiment: Kinase assay, ATP Km; assay type: biochemical
[10] = target: AurB (Homo sapiens, UniProt Q96GD4); experiment: Kinase assay, ATP Km; assay type: biochemical
[11] = target: CLK1 (Homo sapiens, UniProt P49759); experiment: Kinase assay, ATP Km; assay type: biochemical
[12] = target: T6, NDR1 (Homo sapiens, UniProt Q15208); experiment: Kinase assay, ATP Km; assay type: biochemical
T6 construct: purchased Carna Biosciences

[13] = target: EPHB1 (Homo sapiens, UniProt P54762); experiment: Kinase assay, ATP Km; assay type: biochemical
[14] = target: T7, p70S6Kβ (Homo sapiens, UniProt Q9UBS0); experiment: Kinase assay, ATP Km; assay type: biochemical
T7 construct: purchased Carna Biosciences

[15] = target: T8, FMS (Homo sapiens, UniProt P07333); experiment: Kinase assay, 1 mM ATP; assay type: biochemical
T8 construct: purchased Carna Biosciences

[16] = target: T9, TIE2 (Homo sapiens, UniProt Q02763); experiment: Kinase assay, ATP Km; assay type: biochemical
T9 construct: purchased Carna Biosciences

[17] = target: T10, FRK (Homo sapiens, UniProt P42685); experiment: Kinase assay, ATP Km; assay type: biochemical
T10 construct: purchased Carna Biosciences

[18] = target: AMPKα1/β1/γ1 (Homo sapiens, UniProt Q13131); experiment: Kinase assay, ATP Km; assay type: biochemical
[19] = target: EPHA1 (Homo sapiens, UniProt P21709); experiment: Kinase assay, ATP Km; assay type: biochemical
[20] = target: T11, IRR (Homo sapiens, UniProt P14616); experiment: Kinase assay, ATP Km; assay type: biochemical
T11 construct: purchased Carna Biosciences

[21] = target: T12, PDGFRα (Homo sapiens, UniProt P16234); experiment: Kinase assay, ATP Km; assay type: biochemical
T12 construct: purchased Carna Biosciences

[22] = system: KM12 xenograft (TPM3-NTRK1); assay type: in vivo, mouse; settings: for Tumor volume (average / SE): KM12 xenograft
[23] = target: T13, NIM1K (Homo sapiens, UniProt Q8IY84); experiment: Kinase assay, ATP Km; assay type: biochemical
T13 construct: purchased Carna Biosciences

T10 sequence (P42685 whole entry): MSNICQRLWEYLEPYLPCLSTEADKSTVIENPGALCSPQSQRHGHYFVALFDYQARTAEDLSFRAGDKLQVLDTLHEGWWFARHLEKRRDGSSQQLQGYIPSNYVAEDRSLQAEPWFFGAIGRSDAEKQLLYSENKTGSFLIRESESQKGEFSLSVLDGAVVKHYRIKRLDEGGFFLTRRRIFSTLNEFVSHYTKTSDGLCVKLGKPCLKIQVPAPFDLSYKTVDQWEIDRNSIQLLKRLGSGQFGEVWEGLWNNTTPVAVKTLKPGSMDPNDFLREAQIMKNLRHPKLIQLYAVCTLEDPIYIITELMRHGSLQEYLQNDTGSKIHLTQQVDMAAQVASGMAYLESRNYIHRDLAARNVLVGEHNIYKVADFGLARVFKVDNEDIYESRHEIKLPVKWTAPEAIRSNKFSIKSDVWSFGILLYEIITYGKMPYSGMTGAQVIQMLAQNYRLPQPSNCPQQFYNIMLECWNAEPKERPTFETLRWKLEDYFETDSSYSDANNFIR
T3 sequence (Q12866 21-999): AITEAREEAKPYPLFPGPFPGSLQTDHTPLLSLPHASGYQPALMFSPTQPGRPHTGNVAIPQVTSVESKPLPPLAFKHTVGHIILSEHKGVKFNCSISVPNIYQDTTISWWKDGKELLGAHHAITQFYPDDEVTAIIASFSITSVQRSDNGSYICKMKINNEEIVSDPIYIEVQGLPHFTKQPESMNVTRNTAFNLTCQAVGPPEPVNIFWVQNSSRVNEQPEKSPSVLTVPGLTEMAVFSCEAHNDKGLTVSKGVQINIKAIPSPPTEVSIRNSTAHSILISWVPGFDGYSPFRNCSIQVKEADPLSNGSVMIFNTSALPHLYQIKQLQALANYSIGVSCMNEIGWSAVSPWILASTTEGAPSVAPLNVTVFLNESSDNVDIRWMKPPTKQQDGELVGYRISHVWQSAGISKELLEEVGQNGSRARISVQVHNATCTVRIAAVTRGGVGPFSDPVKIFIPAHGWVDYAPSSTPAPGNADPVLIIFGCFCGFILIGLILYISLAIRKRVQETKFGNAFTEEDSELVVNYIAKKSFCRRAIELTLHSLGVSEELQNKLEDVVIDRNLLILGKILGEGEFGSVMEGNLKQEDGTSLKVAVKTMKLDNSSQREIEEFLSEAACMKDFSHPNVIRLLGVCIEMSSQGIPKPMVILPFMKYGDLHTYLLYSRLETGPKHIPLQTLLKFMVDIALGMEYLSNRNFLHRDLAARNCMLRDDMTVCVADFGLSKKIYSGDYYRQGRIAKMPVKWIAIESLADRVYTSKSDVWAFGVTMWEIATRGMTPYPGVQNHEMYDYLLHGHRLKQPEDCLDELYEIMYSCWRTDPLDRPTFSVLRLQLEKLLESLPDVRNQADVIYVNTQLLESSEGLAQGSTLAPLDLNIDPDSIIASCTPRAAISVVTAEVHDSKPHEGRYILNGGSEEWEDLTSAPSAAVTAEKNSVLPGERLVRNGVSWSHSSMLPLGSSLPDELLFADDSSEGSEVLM
T11 sequence (P14616 27-1297): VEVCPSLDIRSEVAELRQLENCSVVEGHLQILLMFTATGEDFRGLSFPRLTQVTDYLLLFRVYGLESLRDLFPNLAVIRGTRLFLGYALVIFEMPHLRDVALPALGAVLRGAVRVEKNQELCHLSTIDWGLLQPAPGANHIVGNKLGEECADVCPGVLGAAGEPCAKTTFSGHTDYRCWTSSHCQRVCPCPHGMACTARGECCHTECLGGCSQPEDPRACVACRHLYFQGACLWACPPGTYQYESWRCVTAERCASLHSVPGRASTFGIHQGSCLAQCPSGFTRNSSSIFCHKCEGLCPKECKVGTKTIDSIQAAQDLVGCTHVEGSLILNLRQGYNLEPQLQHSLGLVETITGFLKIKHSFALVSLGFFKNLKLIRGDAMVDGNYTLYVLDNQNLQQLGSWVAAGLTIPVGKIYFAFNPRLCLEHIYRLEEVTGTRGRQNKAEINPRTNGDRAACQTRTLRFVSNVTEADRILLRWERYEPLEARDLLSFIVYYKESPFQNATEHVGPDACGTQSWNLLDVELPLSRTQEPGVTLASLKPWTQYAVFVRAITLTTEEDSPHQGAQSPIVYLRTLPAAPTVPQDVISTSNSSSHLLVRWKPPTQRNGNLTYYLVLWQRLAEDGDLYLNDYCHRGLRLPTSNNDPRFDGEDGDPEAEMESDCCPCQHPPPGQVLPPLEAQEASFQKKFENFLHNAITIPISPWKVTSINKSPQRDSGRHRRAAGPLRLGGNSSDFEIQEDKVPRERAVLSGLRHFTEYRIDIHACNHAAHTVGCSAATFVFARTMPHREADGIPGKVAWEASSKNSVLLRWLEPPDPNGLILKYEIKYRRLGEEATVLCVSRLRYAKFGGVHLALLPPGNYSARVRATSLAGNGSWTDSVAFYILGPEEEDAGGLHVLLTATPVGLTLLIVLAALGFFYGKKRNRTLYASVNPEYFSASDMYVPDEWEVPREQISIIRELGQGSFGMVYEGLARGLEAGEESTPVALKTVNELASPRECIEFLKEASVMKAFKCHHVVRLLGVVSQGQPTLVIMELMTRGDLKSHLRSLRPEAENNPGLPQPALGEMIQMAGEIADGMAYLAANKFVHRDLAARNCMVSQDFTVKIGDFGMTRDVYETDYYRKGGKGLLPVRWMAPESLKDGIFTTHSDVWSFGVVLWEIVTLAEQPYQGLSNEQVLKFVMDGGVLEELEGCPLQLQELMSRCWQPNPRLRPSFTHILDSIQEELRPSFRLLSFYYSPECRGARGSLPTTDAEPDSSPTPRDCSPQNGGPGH
Sequence of EPHA1 (P21709 26-976): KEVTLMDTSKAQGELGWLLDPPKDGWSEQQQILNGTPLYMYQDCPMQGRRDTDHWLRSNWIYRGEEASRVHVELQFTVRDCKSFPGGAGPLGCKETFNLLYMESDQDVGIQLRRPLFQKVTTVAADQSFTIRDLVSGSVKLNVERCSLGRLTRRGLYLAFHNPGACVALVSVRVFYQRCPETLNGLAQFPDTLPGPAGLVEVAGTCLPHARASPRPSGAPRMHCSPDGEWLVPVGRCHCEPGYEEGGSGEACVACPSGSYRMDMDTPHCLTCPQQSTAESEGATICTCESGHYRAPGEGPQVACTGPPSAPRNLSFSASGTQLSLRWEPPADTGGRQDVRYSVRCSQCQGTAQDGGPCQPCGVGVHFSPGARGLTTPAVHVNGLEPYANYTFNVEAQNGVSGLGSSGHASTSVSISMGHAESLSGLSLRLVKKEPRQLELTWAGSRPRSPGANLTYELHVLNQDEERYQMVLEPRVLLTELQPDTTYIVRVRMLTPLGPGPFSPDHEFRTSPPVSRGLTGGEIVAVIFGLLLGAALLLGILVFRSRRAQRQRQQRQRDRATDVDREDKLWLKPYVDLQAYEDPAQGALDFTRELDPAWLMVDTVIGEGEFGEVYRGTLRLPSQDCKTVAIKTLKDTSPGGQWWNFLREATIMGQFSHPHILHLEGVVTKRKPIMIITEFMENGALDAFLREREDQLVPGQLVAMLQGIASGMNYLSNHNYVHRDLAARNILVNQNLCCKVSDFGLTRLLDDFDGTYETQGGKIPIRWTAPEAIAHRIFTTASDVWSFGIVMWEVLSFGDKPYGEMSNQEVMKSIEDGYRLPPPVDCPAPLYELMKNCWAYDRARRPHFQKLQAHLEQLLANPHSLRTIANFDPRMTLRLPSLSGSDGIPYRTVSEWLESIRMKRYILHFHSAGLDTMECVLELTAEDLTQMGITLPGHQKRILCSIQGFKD
T6 sequence (Q15208 whole entry): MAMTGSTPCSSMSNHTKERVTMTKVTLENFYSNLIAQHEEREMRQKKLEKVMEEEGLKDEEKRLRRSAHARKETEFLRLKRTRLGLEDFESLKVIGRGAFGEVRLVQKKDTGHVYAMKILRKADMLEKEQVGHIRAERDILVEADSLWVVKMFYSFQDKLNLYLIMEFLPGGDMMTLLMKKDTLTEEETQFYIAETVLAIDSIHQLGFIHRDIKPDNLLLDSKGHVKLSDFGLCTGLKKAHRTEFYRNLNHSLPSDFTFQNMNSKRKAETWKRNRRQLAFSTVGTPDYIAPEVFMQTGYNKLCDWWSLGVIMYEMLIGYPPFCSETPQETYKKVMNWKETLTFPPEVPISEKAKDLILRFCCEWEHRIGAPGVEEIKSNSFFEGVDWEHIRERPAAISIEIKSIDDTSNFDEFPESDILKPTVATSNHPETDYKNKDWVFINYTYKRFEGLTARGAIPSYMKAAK
T7 sequence (Q9UBS0 whole entry): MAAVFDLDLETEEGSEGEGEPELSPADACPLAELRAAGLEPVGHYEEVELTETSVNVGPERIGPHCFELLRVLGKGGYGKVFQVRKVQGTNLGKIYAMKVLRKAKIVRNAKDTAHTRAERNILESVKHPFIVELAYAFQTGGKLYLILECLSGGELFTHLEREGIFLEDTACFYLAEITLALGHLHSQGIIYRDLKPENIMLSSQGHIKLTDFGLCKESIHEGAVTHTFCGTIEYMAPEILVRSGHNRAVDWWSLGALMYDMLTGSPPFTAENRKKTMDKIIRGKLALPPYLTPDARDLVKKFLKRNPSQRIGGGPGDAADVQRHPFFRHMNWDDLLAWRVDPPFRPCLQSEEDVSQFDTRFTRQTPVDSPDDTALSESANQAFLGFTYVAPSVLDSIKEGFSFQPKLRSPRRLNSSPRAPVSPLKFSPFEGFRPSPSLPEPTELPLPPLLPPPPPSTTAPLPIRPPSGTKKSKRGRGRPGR

## C[C@@H](N)COc1ccc(-c2cnc3ccc(N[C@H](C)c4cccc(F)c4)nn23)cc1.O=C(O)CCCCC(=O)O [DS-6051b]
[1]
  inhibition at 0.04 µM: 16.2%
[2]
  inhibition at 0.04 µM: 59.8%
[3]
  inhibition at 0.04 µM: -1.8%
[4]
  inhibition at 0.04 µM: 27.6%
[5]
  inhibition at 0.04 µM: 48.7%
[6]
  pIC50: 7.70 to 8.52
[7]
  inhibition at 0.04 µM: 3.6%
[8]
  inhibition at 0.04 µM: 88.9%
[9]
  inhibition at 0.04 µM: 53%
[10]
  inhibition at 0.04 µM: 63.8%
[11]
  inhibition at 0.04 µM: 1.1%
[12]
  inhibition at 0.04 µM: 51.2%
[13]
  inhibition at 0.04 µM: 42.1%
[14]
  inhibition at 0.04 µM: 9.8%
[15]
  inhibition at 0.2 µM: 32.1%
[16]
  inhibition at 0.04 µM: 13.5%
[17]
  inhibition at 0.04 µM: 63.4%
[18]
  inhibition at 0.04 µM: 5%
[19]
  inhibition at 0.04 µM: 79.2%
[20]
  inhibition at 0.04 µM: 69.1%
[21]
  inhibition at 0.04 µM: 67%
[22]; 6.25 mg/kg, day 0
  Tumor volume (average / SE): 172 mm3
[22]; 6.25 mg/kg, day 2
  Tumor volume (average / SE): 226 mm3
[22]; 6.25 mg/kg, day 4
  Tumor volume (average / SE): 383 mm3
[22]; 6.25 mg/kg, day 6
  Tumor volume (average / SE): 637 mm3
[22]; 6.25 mg/kg, day 8
  Tumor volume (average / SE): 1018 mm3
[22]; 25 mg/kg po, day 0
  Tumor volume (average / SE): 171 mm3
[22]; 25 mg/kg po, day 2
  Tumor volume (average / SE): 224 mm3
[22]; 25 mg/kg po, day 4
  Tumor volume (average / SE): 329 mm3
[22]; 25 mg/kg po, day 6
  Tumor volume (average / SE): 420 mm3
[22]; 25 mg/kg po, day 8
  Tumor volume (average / SE): 661 mm3
[22]; 50 mg/kg po, day 0
  Tumor volume (average / SE): 171 mm3
[22]; 50 mg/kg po, day 2
  Tumor volume (average / SE): 211 mm3
[22]; 50 mg/kg po, day 4
  Tumor volume (average / SE): 296 mm3
[22]; 50 mg/kg po, day 6
  Tumor volume (average / SE): 268 mm3
[22]; 50 mg/kg po, day 8
  Tumor volume (average / SE): 219 mm3
[22]; 100 mg/kg po, day 0
  Tumor volume (average / SE): 171 mm3
[22]; 100 mg/kg po, day 2
  Tumor volume (average / SE): 223 mm3
[22]; 100 mg/kg po, day 4
  Tumor volume (average / SE): 239 mm3
[22]; 100 mg/kg po, day 6
  Tumor volume (average / SE): 213 mm3
[22]; 100 mg/kg po, day 8
  Tumor volume (average / SE): 161 mm3
[22]; 200 mg/kg po, day 0
  Tumor volume (average / SE): 174 mm3
[22]; 200 mg/kg po, day 2
  Tumor volume (average / SE): 220 mm3
[22]; 200 mg/kg po, day 4
  Tumor volume (average / SE): 223 mm3
[22]; 200 mg/kg po, day 6
  Tumor volume (average / SE): 207 mm3
[22]; 200 mg/kg po, day 8
  Tumor volume (average / SE): 144 mm3
[22]; once daily oral gavage, 8 days
  Dose inducing tumor shrinkage: ≥ 50 mg/kg
[23]
  inhibition at 0.04 µM: -2.8%
